In patent US20170107577A1, “Determining Cancer Aggressiveness, Prognosis and Responsiveness to Treatment” (THE COUNCIL OF THE QUEENSLAND INSTITUTE OF MEDICAL RESEARCH, priority 2014, published 2017):
Entries after “also recorded” stand apart in the source; their conditions may differ. Read-outs that look alike come from different tables or passages of the source.

Assays:
Format in all cases: cell-based
[1] = test system: breast cancer cell lines (TNBC and non-TNBC); test: Cell survival (CellTiter 96 MTS/MTA assay) of breast cancer cell lines after drug treatment; settings: 6 days; for survival of cells, combination of TTKi with docetaxel: very low (sub-lethal) doses, TNBC cell lines which overexpress TTK vs cell lines which do not
Procedure: FIG. 5: Therapeutic targets in the aggressiveness gene list. (A) The TNBC cell lines, MDA-MB-231, SUM159PT and Hs578T were treated with control siRNA (Scrambled, Sc CTRL) or siRNA targeting the specified genes and the survival of these cells was compared on day 6. Data shown is the average from the three cell lines where each cell line was treated in triplicate. * p<0.05, ** p<0.01 and *** <0.001 from One-Way ANOVA analysis performed using GraphPad® Prism. (B) A panel of breast cancer cell lines was used to prepare lysates for immunoblotting of TTK. Tubulin was used as the loading control. (C) Dose response curves for the treatment of breast cancer cell lines in the absence or presence of escalating doses of the TTK inhibitor (TTKi) AZ3146. The survival of cells was measured using the CellTitre® MTS/MTA assay carried out 6 days after treatment. Percentage survival (n=3 per dose) was calculated as the percentage of the signal from treated cells to that from control cells. […]
FIG. 7: TTK associates with aggressive subtypes and is a therapeutic target. […] The survival of cells was measured using the MTS/MTA assay as described in Methods. *** p<0.001 comparing the combination to single agents and to non-TNBC cell lines from Two-Way Anova in GraphPad® Prism. […]
Breast cancer cell lines were obtained from ATCC™ (VA, USA) and cultured as per ATCC™ instructions. […] Six days after siRNA knockdown or after drug treatments the survival of cells in comparison to control was determined using the CellTiter 96® Assay as per manufacturer instructions (Promega Corporation, WI, USA). For immunoblotting, standard protocols were used and membranes were probed with antibodies against TTK (anti-MPS1 mouse monoclonal antibody [N1] ab11108 (Abcam, Cambridge), and γ-tubulin (Sigma-Aldrich®) then developed using chemiluminescence reagent plus (Milipore, MA, USA). Flow cytometry to quantify apoptosis was performed using Annexin V-Alexa488 and 7-AAD (Life Technologies) as per manufacturer instruction using BD FACSCanto II™ flow cytometer (BD Biosciences, CA, USA).

MDA-MB-231 cells = test: Apoptosis assay by flow cytometry (Annexin V / 7-AAD); settings: MDA-MB-231, collected at 96 hours
Description: FIG. 7: TTK associates with aggressive subtypes and is a therapeutic target. (A) Kaplan-Meier survival curves are shown for Grade 3 tumors, lymph node positive patients (LN^+) and LN^+ patients with grade 3 tumors. Log-rank Test and p-value were used for these survival curves. For patients with TNBC, and HER2, survival was statistically significant using the Gehan-Breslow-Wilcoxon test (p-values marked by asterisks) which gives more weight to deaths at early time points. […] Survival curves and statistical analyses were performed using GraphPad® Prism. (B) TNBC and non-TNBC cell lines were treated for 6 days with the specified concentrations of docetaxel (doc) alone, TTK inhibitor (TTKi) alone of the combinations. The survival of cells was measured using the MTS/MTA assay as described in Methods. *** p<0.001 comparing the combination to single agents and to non-TNBC cell lines from Two-Way Anova in GraphPad® Prism. (C) MDA-MB-231 cells were treated with docetaxel or TTKi alone or in combination and collected at 96 hours to perform apoptosis assays by flow cytometry. […]
Breast cancer cell lines were obtained from ATCC™ (VA, USA) and cultured as per ATCC™ instructions. […] Six days after siRNA knockdown or after drug treatments the survival of cells in comparison to control was determined using the CellTiter 96® Assay as per manufacturer instructions (Promega Corporation, WI, USA). […]

breast cancer cell lines = test: Aurora kinase inhibitor sensitivity of breast cancer cell lines by Agro, TN and iBCR score (two published studies)
Procedure: Two studies which treated breast cancer cell lines with Aurora kinase inhibitors were analyzed based on the Agro, TN and the iBCR score for these cell lines.

[2] = high iBCR score breast cancer cell lines, read-out: IC50, high iBCR score cell lines
[3] = low iBCR score breast cancer cell lines, read-out: IC50, low iBCR score cell lines

Row | Molecule | survival of cells, combination of TTKi with docetaxel [1] | apoptotic cell death, combination of TTKi with docetaxel (MDA-MB-231 cells) | sensitivity (survival of cells) to the TTK inhibitor ([1]; panel of breast cancer cell lines, TNBC cell lines vs other cell lines) | IC50 (breast cancer cell lines; [2]) [nM] | IC50 (breast cancer cell lines; [3]) [nM]
1 | CC(=O)O[C@@]12CO[C@@H]1C[C@H](O)[C@@]1(C)C(=O)[C@H](O)C3=C(C)[C@@H](OC(=O)[C@H](O)[C@@H](NC(=O)OC(C)(C)C)c4ccccc4)C[C@@](O)([C@@H](OC(=O)c4ccccc4)[C@H]21)C3(C)C [docetaxel] | synergized | induced apoptotic cell death |  |  | 
2 | AZ3146 | synergized with docetaxel | induced apoptotic cell death | effective against TNBC cell lines; also recorded: TNBC cell lines were more sensitive |  | 
3 | Cc1csc(-c2nnc(Nc3ccc(Oc4ncccc4-c4ccnc(N)n4)cc3)c3ccccc23)c1 [AMG 900] |  |  |  | 0.3 | 0.7
4 | Cc1cc(Nc2cc(N3CCN(C)CC3)nc(/C=C/c3ccccc3)n2)n[nH]1 [ENMD-2076] |  |  |  | 1400 | 5900
